Assay results: US9220243B2, “Models of atherosclerosis, hyperlipidemia, lipoprotein oxidation and blood vessel inflammation and methods for making and using them” (THE REGENTS OF THE UNIVERSITY OF CALIFORNIA, priority 2006, dated 2015)

System: Fli:EGFP zebrafish larvae
Experiment: High fat diet zebrafish larvae model with fluorescent cholesterol ester, ezetimibe added to the tank water, confocal imaging
Assay type: in vivo, zebrafish (Danio rerio)
Conditions: 10 days on high fat diet with fluorescent (red) cholesterol ester
Description: Spray cholesterol (4% in ether) on the fish food, let it dry for 2 hours in a fume hood. Collect and keep at 4° C. Feed the fish with high-cholesterol food for 7 days to 8 weeks.
To visualize the lipid in larvae zebrafish, add to the cholesterol ether solution 10 μg/ml of cholesteryl BODIPY 576/589 C11 (Invitrogen, C12681). […] Feed fli:EGFP zebrafish with this high-cholesterol diet for one week.
Use a fluorescent confocal microscope to image dorsal aorta of a fli:EGFP zebrafish (wild type or ApoE knockdown) that was placed on a high-cholesterol diet, and compare with a control zebrafish that was fed a normal diet.
Visualize using a C1si confocal microscope: • endothelial cell morphology and the morphology of the vessel • accumulation of fluorescent lipid in the artery wall
FIG. 5. Ezetimibe reduces cholesterol absorption in zebrafish intestine (A) and prevents vascular damage (B). Fli:EGFP zebrafish larvae were feeding for 10 days on high fat diet with a fluorescent (red) cholesterol ester, with or without the addition of ezetimibe in the tank water. Ezetimibe, or (3R,4S)-1-(4-fluorophenyl)-3-((3S)-3-(4-fluorophenyl)-3-hydroxypropyl)-4-(4-hydroxyphenyl)-2-azetidinone, is an FDA-approved medicine (marketed as ZETIA™), which inhibits the absorption of cholesterol by the small intestine. […] Remarkably, ezetimibe rescued blood vessels from high fat diet-induced damage.

SMILES: O=C1[C@H](CC[C@H](O)c2ccc(F)cc2)[C@@H](c2ccc(O)cc2)N1c1ccc(F)cc1 [Ezetimibe, (3R,4S)-1-(4-fluorophenyl)-3-((3S)-3-(4-fluorophenyl)-3-hydroxypropyl)-4-(4-hydroxyphenyl)-2-azetidinone]
- level of cholesterol accumulated in the digestive system (intensity of red fluorescence) (FIG. 5(A)): considerably reduced a level of cholesterol accumulated in the digestive system
- pathological changes in the endothelial layer morphology inflicted by high fat diet (vascular damage) (FIG. 5(B)): prevented pathological changes in the endothelial layer morphology
